In one data set the test system is Phytophthora infestans. It counts as in vivo. As to conditions: tomato plants, preventive spray, 500 ppm of active ingredient, evaluated 7 days after inoculation; 0% = untreated control, 100% = no disease.
The next data set concerns Plasmopara viticola. The data set is described as follows: Plasmopara test (grapevines) / preventive. It counts as in vivo. As to conditions: grapevine plants, preventive spray, 100 ppm of active ingredient, evaluated 6 days after inoculation; 0% = untreated control, 100% = no disease. The protocol:
Solvent: 24.5 parts by weight of acetone • 24.5 parts by weight of dimethylacetamide
Emulsifier: 1 part by weight of alkylaryl polyglycol ether
To produce a suitable preparation of active compound, 1 part by weight of active compound is mixed with the stated amounts of solvent and emulsifier, and the concentrate is diluted with water to the desired concentration. To test for preventive activity, young plants are sprayed with the preparation of active compound at the stated rate of application. After the spray coating has dried on, the plants are inoculated with an aqueous spore suspension of Plasmopara viticola and then remain for 1 day in an incubation cabinet at approximately 20° C. and a relative atmospheric humidity of 100%. The plant is subsequently placed for 4 days in a greenhouse at approximately 21° C. and a relative atmospheric humidity of approximately 90%. The plants are then misted and placed for 1 day in an incubation cabinet. The test is evaluated 6 days after the inoculation. 0% means an efficacy which corresponds to that of the untreated control, while an efficacy of 100% means that no disease is observed.

The conditions of data set [1]: pH 2.7.
Method: (§1) Measurement of log P values was performed according EEC directive 79/831 Annex V.A8 by HPLC (High Performance Liquid Chromatography) on reversed phase columns with the following methods:
(§2) ^[a] measurement of LC-MS was done at pH 2.7 with 0.1% formic acid in water and with acetonitrile (contains 0.1% formic acid) as eluent with a linear gradient from 10% acetonitrile to 95% acetonitrile.
For data set [2] the following is noted: method [a]: LC-MS at pH 2.7, 0.1% formic acid in water / acetonitrile, linear gradient 10% to 95% acetonitrile.
Method: as §1, §2

53 compounds from patent publication US9474275B2, “Cyanoenamines and their use as fungicides” (priority 2010, dated 2016) can be followed below.

Where two headings read alike, the source gives them in different places. Marks after values point to notes of the source that are not given here.

On to `CCCC(=O)C(C#N)=C(NC(C)COCC)c1cccnc1Cl` (stereo not shown) [Compound 86], for which the efficacy in the data set on Phytophthora infestans was 97%; with Plasmopara viticola, 90%.
As to `CCCC(=O)C(C#N)=C(NC(C)C1CC1)c1cn(C)nc1C(F)F` (stereo not shown) [Compound 18], the efficacy is given as 95% with Phytophthora infestans and 91% with Plasmopara viticola. Besides, in data set [1], the LogP was 3.08^[a].
The compound `CCCC(=O)C(C#N)=C(NC1(CC2CC2)CC1)c1cccnc1Cl` [Compound 101] displayed an efficacy in the data set on Phytophthora infestans of 95%. Besides, the LogP in data set [2] is 3.79^[a].
Taken in the same sequence, the figures for `C#CC(C)NC(=C(C#N)C(=O)CCC)c1cccnc1Cl` (racemic) [Compound 112] were 83% and 2.9^[a].
Taken in the same sequence, the figures for `CC(C)CC(=O)C(C#N)=C(NC(C)C(C)C)c1cccnc1Cl` (stereo not shown) [Compound 40] were 75% and 3.90^[a].
Taken in the same sequence, the figures for `CCCC(=O)C(C#N)=C(NC(C)C(C)OC)c1cccnc1Cl` (mixture of isomers) [Compound 114] were 95% and 3.02^[a].
As to `CC(NC(=C(C#N)C(=O)C1CCC1)c1cn(C)nc1C(F)F)C1CC1` (stereo not shown) [Compound 70], in the data set with Phytophthora infestans, the efficacy was 80%. For the same compound, the LogP in data set [2] was 3.25^[a].
For the compound `COCC(=O)C(C#N)=C(NC(C)C1(Cl)CC1)c1cccnc1Cl` (stereo not shown) [Compound 36], the efficacy in the data set with Phytophthora infestans is listed as 70%. Besides, in data set [2], the LogP was 2.44^[a].
For `CCCC(=O)C(C#N)=C(NC(C)C1CCC1)c1cccnc1Cl` (racemic) [Compound 104] the same measures were 95% and 3.81^[a].
Taken in the same sequence, the figures for `CCCCC(=O)C(C#N)=C(NC(C)C1(Cl)CC1)c1cccnc1Cl` (stereo not shown) [Compound 47] were 75% and 2.33^[a].
For `CC#CC(C)NC(=C(C#N)C(=O)CCC)c1cn(C)nc1C(F)F` (racemic) [Compound 125], the efficacy with Phytophthora infestans is on record as 75%. Further, the LogP in data set [2] was 2.98^[a].
Taken in the same sequence, the figures for `CCCC(=O)C(C#N)=C(NC(C)c1c(F)cccc1F)c1cn(C)nc1C(F)F` (stereo not shown) [Compound 110] were 95% and 3.46^[a].
Take `CCCC(=O)C(C#N)=C(NC(C)CC1CC1)c1cn(C)nc1C(F)F` (racemic) [Compound 130]: in the data set on Phytophthora infestans, the efficacy is recorded as 85%. In addition, the LogP in data set [2] is 3.35^[a].
Taken in the same sequence, the figures for `CCCC(=O)C(C#N)=C(NC(C)c1c(F)cccc1F)c1cccnc1Cl` (stereo not shown) [Compound 106] were 75% and 3.46^[a].
With `CCC1CC1NC(=C(C#N)C(=O)CC1CC1)c1cccnc1Cl` (stereo not shown) [Compound 72], in the data set on Phytophthora infestans, the efficacy came out at 100%. Further, the LogP in data set [2] was 3.46^[a].
Taken in the same sequence, the figures for `CCCC(=O)C(C#N)=C(NC(C)COC)c1cccnc1C` (stereo not shown) [Compound 91] were 100% and 2.14^[a].
Taken in the same sequence, the figures for `COCC(=O)C(C#N)=C(NC(C)c1ccccn1)c1cccnc1Cl` (stereo not shown) [Compound 1] were 93% and 1.78^[a].
For `CCCC(=O)C(C#N)=C(NC(C)C1=NOCC1)c1cccnc1Cl` (racemic) [Compound 100], the efficacy in the data set with Phytophthora infestans worked out at 95%. Further, in data set [2], the LogP is 2.47^[a].
For `CCCC(=O)C(C#N)=C(NC(C)C1(C)CC1)c1cn(C)nc1C(F)F` (racemic) [Compound 121] the same measures were 93% and 3.33^[a].
On to `CC(C)C(C)NC(=C(C#N)C(=O)C1CCOC1)c1cccnc1Cl` (stereo not shown) [Compound 28], for which the LogP in data set [1] is 2.70^[a].
`CCCC(=O)C(C#N)=C(NC(C)COC)c1cccnc1Cl` (stereo not shown) [Compound 83]: the efficacy with Phytophthora infestans and in the data set on Plasmopara viticola was 100% in each case.
With `CCCC(=O)C(C#N)=C(NC(C)CC)c1cn(C)nc1C(F)F` (racemic) [Compound 122], the efficacy in the data set on Phytophthora infestans came to 90%. For the same compound, the LogP in data set [2] was 2.98^[a].
Taken in the same sequence, the figures for `CC(C)C(C)NC(=C(C#N)C(=O)C1CC1)c1cn(C)nc1C(F)F` (stereo not shown) [Compound 52] were 75% and 3.11^[a].
Taken in the same sequence, the figures for `CC(C)C(C)NC(=C(C#N)C(=O)c1ccsn1)c1cccnc1Cl` (stereo not shown) [Compound 25] were 75% and 2.98^[a].
Taken in the same sequence, the figures for `CCCC(=O)C(C#N)=C(NC(C)CCc1ccccc1)c1cccnc1Cl` (racemic) [Compound 116] were 85% and 4.16^[a].
For the compound `COCCC(=O)C(C#N)=C(NC(C)C(C)C)c1cn(C)nc1C(F)F` (stereo not shown) [Compound 62], the efficacy with Phytophthora infestans was determined as 75%. Further, the LogP in data set [2] is 2.64^[a].
`CC(C)C(C)NC(=C(C#N)C(=O)C1CCC1)c1cccnc1Cl` (stereo not shown) [Compound 44] yielded an efficacy in the data set on Phytophthora infestans of 85%. Also, the LogP in data set [2] is 3.80^[a].
For `CCCC(=O)C(C#N)=C(NC(C)CCC)c1cn(C)nc1C(F)F` (racemic) [Compound 129] the same measures were 75% and 3.33^[a].
Taken in the same sequence, the figures for `CC(C)C(C)NC(=C(C#N)C(=O)C1(F)CC1)c1cccnc1Cl` (stereo not shown) [Compound 10] were 95% and 3.29^[a].
For `COCC(=O)C(C#N)=C(NC(C)C1CC1)c1cn(C)nc1C(F)F` (stereo not shown) [Compound 17] the same measures were 100% and 2.15^[a].
`CC(C)C(C)NC(=C(C#N)C(=O)C1CCC1)c1cn(C)nc1C(F)F` (stereo not shown) [Compound 34]: in the data set on Phytophthora infestans, the efficacy was found to be 90%. Also, in data set [2], the LogP is 3.46^[a].
Regarding `CCCC(=O)C(C#N)=C(NC1(CC2CC2)CC1)c1cn(C)nc1C(F)F` [Compound 119], the efficacy in the data set with Phytophthora infestans amounted to 93%. Also, the LogP in data set [2] was 3.44^[a].
For `CCCC(=O)C(C#N)=C(NC1CCC1)c1cn(C)nc1C(F)F` [Compound 120] the same measures were 90% and 2.88^[a].
Take `C#CC(C)NC(=C(C#N)C(=O)CCC)c1cn(C)nc1C(F)F` (racemic) [Compound 124]: in the data set with Phytophthora infestans, the efficacy turned out to be 93%. Further, the LogP in data set [2] was 2.66^[a].
For `CCCC(=O)C(C#N)=C(NC(C)CCC)c1cccnc1Cl` (racemic) [Compound 117] the same measures were 80% and 3.65^[a].
As for `CCCC(=O)C(C#N)=C(NC(C)C(C)(C)C)c1cccnc1Cl` (stereo not shown) [Compound 87], the efficacy with Phytophthora infestans and with Plasmopara viticola was 100% throughout.
As to `CCCC(=O)C(C#N)=C(NC(C)C(=O)OCC)c1cn(C)nc1C(F)F` (racemic) [Compound 131], the efficacy in the data set with Phytophthora infestans amounted to 80%. For the same compound, the LogP in data set [2] was 2.78^[a].
Turning to `CCC(=O)C(C#N)=C(NC(C)C(C)C)c1cn(C)nc1C(F)F` (stereo not shown) [Compound 23], in the data set with Phytophthora infestans, the efficacy was 93%. Further, the LogP in data set [2] was 2.92^[a].
`CC(NC(=C(C#N)C(=O)C1CC1)c1cn(C)nc1C(F)F)C1CC1` (stereo not shown) [Compound 59] returned an efficacy in the data set on Phytophthora infestans of 90%. Besides, the LogP in data set [2] is 2.90^[a].
For `CC#CC(C)NC(=C(C#N)C(=O)CCC)c1cccnc1Cl` (racemic) [Compound 113] the same measures were 85% and 3.09^[a].
Taken in the same sequence, the figures for `CCCC(=O)C(C#N)=C(NC(C)c1ccco1)c1cn(C)nc1C(F)F` (racemic) [Compound 132] were 90% and 3.04^[a].
Taken in the same sequence, the figures for `CCCCC(=O)C(C#N)=C(NC(C)C(C)C)c1cccnc1Cl` (stereo not shown) [Compound 16] were 95% and 4.06^[a].
Take `CCCC(=O)C(C#N)=C(NC(C)C1(C)CC1)c1cccnc1Cl` (racemic) [Compound 103]: in the data set on Phytophthora infestans, the efficacy was found to be 95%. Besides, in data set [2], the LogP was 3.57^[a].
For the compound `CCCC(=O)C(C#N)=C(NC(C)c1ccsn1)c1cccnc1Cl` (stereo not shown) [Compound 85], the efficacy in the data set on Phytophthora infestans was 97%; in the data set with Plasmopara viticola, 87%.
In the data set on Phytophthora infestans, `CCCC(=O)C(C#N)=C(NC1CCC1)c1cccnc1Cl` [Compound 102] had an efficacy of 80%. In addition, the LogP in data set [2] was 3.13^[a].
Turning to `CCCC(=O)C(C#N)=C(NC(C)C(C)C)c1cc(C)nn1C(F)F` (stereo not shown) [Compound 92], the LogP in data set [2] is 3.92^[a].
As for `COCC(=O)C(C#N)=C(NC(C)c1nccs1)c1cccnc1Cl` (stereo not shown) [Compound 77], the efficacy with Phytophthora infestans amounted to 93%.
`CC(NC(=C(C#N)C(=O)C1CCC1)c1cccnc1Cl)C1CC1` (stereo not shown) [Compound 12]: the LogP in data set [2] is 3.44^[a].
Same read-out and setting: with `CC(C)C(C)NC(=C(C#N)C(=O)CN(C)C)c1cccnc1Cl` (stereo not shown) [Compound 13] the figure was 1.39^[a].
On to `CCCC(=O)C(C#N)=C(NC(C)c1nccs1)c1cccnc1Cl` (stereo not shown) [Compound 26], for which the efficacy in the data set with Phytophthora infestans amounted to 100%. Also, the LogP in data set [2] was 2.61^[a].
As for `CCC(C)C(=O)C(C#N)=C(NC(C)C(C)C)c1cccnc1Cl` (stereo not shown) [Compound 76], the LogP in data set [2] is 3.9^[a].
`C=CCCC(=O)C(C#N)=C(NC(C)C(C)C)c1cccnc1Cl` (stereo not shown) [Compound 73]: the efficacy with Phytophthora infestans is recorded as 80%. Also, the LogP in data set [2] was 3.7^[a].
Consider `CCCC(=O)C(C#N)=C(NC1CC1CC)c1cccnc1Cl` (stereo not shown) [Compound 31], for which, in data set [2], the LogP is 3.51^[a].
